Where a name gives a salt, the structure may show the parent alone.
Target: T1, recombinant human LTA4 hydrolase (rhLTA4H) (Homo sapiens, UniProt P09960)
T1 construct: made in house; host or cells: Spodoptera frugiperda (Sf-9) cells, baculovirus (pFastBac1)
T1 sequence (P09960 1-611): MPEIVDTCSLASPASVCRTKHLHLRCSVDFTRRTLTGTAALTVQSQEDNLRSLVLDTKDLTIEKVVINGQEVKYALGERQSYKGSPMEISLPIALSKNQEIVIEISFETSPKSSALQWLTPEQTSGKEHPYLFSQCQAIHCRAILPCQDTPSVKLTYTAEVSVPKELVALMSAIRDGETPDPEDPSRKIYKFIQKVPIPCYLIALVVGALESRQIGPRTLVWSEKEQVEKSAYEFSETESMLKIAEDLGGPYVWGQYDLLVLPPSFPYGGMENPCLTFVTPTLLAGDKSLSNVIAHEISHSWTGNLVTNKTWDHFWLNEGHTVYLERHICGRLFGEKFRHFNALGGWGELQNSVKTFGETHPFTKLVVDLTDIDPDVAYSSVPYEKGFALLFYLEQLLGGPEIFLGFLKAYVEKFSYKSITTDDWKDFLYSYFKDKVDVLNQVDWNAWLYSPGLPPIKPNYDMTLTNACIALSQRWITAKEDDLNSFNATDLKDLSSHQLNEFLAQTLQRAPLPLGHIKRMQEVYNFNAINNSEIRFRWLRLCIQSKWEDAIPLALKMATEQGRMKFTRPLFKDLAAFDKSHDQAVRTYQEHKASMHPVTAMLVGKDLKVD
Experiment: Recombinant Human LTA4 Hydrolase Assay for LTA4 Hydrolase Inhibitor Activity
Assay type: biochemical
Details: average of results obtained; LTB4 quantified by enzyme-linked immunoassay
Procedure, shortened: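 Baculovirus/Sf-9-expressed human LTA4 hydrolase (36 ng) preincubated with compound 10 min at rt in 0.1 M potassium phosphate pH 7.4, 5 mg/mL fatty-acid-free BSA. Reaction started with 9 ng LTA4 free acid, run 10 min at rt; LTB4 measured by enzyme immunoassay, IC50 from 4-parameter fit.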

| Compound | Ki [nM] |
| --- | --- |
| CC(=O)NC1[C@H]2CN(Cc3ccc(Oc4nc5ccccc5s4)cc3)C[C@@H]12 (stereo partly drawn) [Example 93, (R,S)—N-{3-[4-(Benzothiazol-2-yloxy)-benzyl]-3-aza-bicyclo[3.1.0]hex-6-yl}-acetamide] | 34 |
| CC(=O)N[C@H]1C[C@H]2CC[C@@H](C1)N2CCOc1ccc(Oc2nc3c(F)cccc3s2)cc1 [Example 273, meso-endo-N-(8-{2-[4-(4-Fluoro-benzothiazol-2-yloxy)-phenoxy]-ethyl}-8-aza-bicyclo[3.2.1]oct-3-yl)-acetamide] | 16 |
| CS(=O)(=O)N1C[C@H]2C[C@@H]1CN2CCOc1ccc(Oc2nc3c(Cl)cccc3s2)cc1 [Example 203, (R,R)-4-Chloro-2-{4-[2-(5-methanesulfonyl-2,5-diaza-bicyclo[2.2.1]hept-2-yl)-ethoxy]-phenoxy}-benzothiazole] | 293 |
| O=C(O)c1ccc(CN2CC3CN(Cc4ccc(Oc5nc6ccccc6s5)cc4)CC3C2)cc1 (stereo not drawn) [Example 154, 4-{5-[4-(Benzothiazol-2-yloxy)-benzyl]-hexahydro-pyrrolo[3,4-c]pyrrol-2-ylmethyl)-benzoic acid] | 32 |
| CC(=O)N1C[C@H]2C[C@@H]1CN2CCOc1ccc(Oc2nc3ccc(C)cc3s2)cc1 [Example 180, (R,R)-1-(5-{2-[4-(6-Methyl-benzothiazol-2-yloxy)-phenoxy]-ethyl}-2,5-diaza-bicyclo[2.2.1]hept-2-yl)-ethanone] | 124 |
| NC(=O)N1CCC2CN(Cc3ccc(Oc4nc5ccccc5s4)cc3)CC2C1 (stereo not drawn) [Example 143, 2-[4-(Benzothiazol-2-yloxy)-benzyl]-octahydro-pyrrolo[3,4-c]pyridine-5-carboxylic acid amide] | 33 |
| O=C(C1CCC1)N1CC2CN(Cc3ccc(Oc4nc5ccccc5s4)cc3)CC2C1 (stereo not drawn) [Example 104, {5-[4-(Benzothiazol-2-yloxy)-benzyl]-hexahydro-pyrrolo[3,4-c]pyrrol-2-yl}-cyclobutyl-methanone] | 62 |
| CS(=O)(=O)N1C2CCC1CN(Cc1ccc(Oc3nc4ccccc4s3)cc1)C2 [Example 57, meso-2-[4-(8-Methanesulfonyl-3,8-diaza-bicyclo[3.2.1]oct-3-ylmethyl)-phenoxy]-benzothiazole] | 173 |
| Cc1ccc2sc(Oc3ccc(OCCN4C[C@@H]5C[C@H]4CN5S(C)(=O)=O)cc3)nc2c1 [Example 255, (S,S)-2-{4-[2-(5-Methanesulfonyl-2,5-diaza-bicyclo[2.2.1]hept-2-yl)-ethoxy]-phenoxy}-5-methyl-benzothiazole] | 277 |
| c1ccc2sc(Oc3ccc(CN4C[C@@H]5C[C@H]4CN5)cc3)nc2c1 [Example 1B, (S,S)-2-[4-(2,5-Diaza-bicyclo[2.2.1]hept-2-ylmethyl)-phenoxy]-benzothiazole hydrochloride] | 54 |
| CS(=O)(=O)N1C[C@H]2C[C@@H]1CN2Cc1ccc(Oc2nc3ccc(Cl)cc3s2)cc1 [Example 236, (R,R)-6-Chloro-2-[4-(5-methanesulfonyl-2,5-diaza-bicyclo[2.2.1]hept-2-ylmethyl)-phenoxy]-benzothiazole] | 169 |
| NC(=O)N1C[C@@H]2C[C@H]1CN2CCc1ccc(Oc2nc3ccccc3s2)cc1 [Example 38, (S,S)-5-{2-[4-(Benzothiazol-2-yloxy)-phenyl]-ethyl}-2,5-diaza-bicyclo[2.2.1]heptane-2-carboxylic acid amide] | 3 |
| c1ccc2sc(Oc3ccc(CN4CCC5CNCC5C4)cc3)nc2c1 (stereo not drawn) [Example 85, 2-[4-(Octahydro-pyrrolo[3,4-c]pyridin-5-ylmethyl)-phenoxy]-benzothiazole hydrochloride] | 450 |
| CC(=O)N1CC2CCC(C1)N2Cc1ccc(Oc2nc3ccccc3s2)cc1F [Example 77, meso-1-{8-[4-(Benzothiazol-2-yloxy)-2-fluoro-benzyl]-3,8-diaza-bicyclo[3.2.1]oct-3-yl}-ethanone] | 12 |
| CS(=O)(=O)N[C@H]1C[C@H]2CC[C@@H](C1)N2CCOc1ccc(Oc2nc3ccc(Cl)cc3s2)cc1 [Example 222, meso-endo-N-(8-{2-[4-(6-Chloro-benzothiazol-2-yloxy)-phenoxy]-ethyl}-8-aza-bicyclo[3.2.1]oct-3-yl)-methanesulfonamide] | 130 |
| CS(=O)(=O)N[C@@H]1C[C@H]2CC[C@@H](C1)N2CCc1ccc(Oc2nc3ccc(F)cc3s2)cc1 [Example 231, meso-exo-N-(8-{2-[4-(6-Fluoro-benzothiazol-2-yloxy)-phenyl]-ethyl}-8-aza-bicyclo[3.2.1]oct-3-yl)-methanesulfonamide] | 17 |
| Cc1ccc2nc(Oc3ccc(CCN[C@@H]4C[C@H]5CC[C@@H](C4)N5S(C)(=O)=O)cc3)sc2c1 [Example 269, meso-exo-(8-Methanesulfonyl-8-aza-bicyclo[3.2.1]oct-3-yl)-{2-[4-(6-methyl-benxothiazol-2-yloxy)-phenyl]-ethyl}-amine] | 630 |
| CC(=O)N1C[C@@H]2C[C@H]1CN2CCc1cccc(Oc2nc3ccccc3s2)c1 [Example 8, (S,S)-1-(5-{2-[3-(Benzothiazol-2-yloxy)-phenyl]-ethyl}-2,5-diaza-bicyclo[2.2.1]hept-2-yl)-ethanone] | 206 |

Tested on: LTB4 production
Experiment: not given
Details: oral administration; mouse blood ex vivo; cited from earlier work

| Compound | inhibition of ionophore-induced LTB4 production |
| --- | --- |
| CN(CCCOc1ccc(Cc2ccccc2)cc1)CCC(=O)O.Cl [SC57461] | caused inhibition |

Tested on: LTB4 production
Experiment: not given
Details: oral administration; rat peritoneum in vivo; cited from earlier work

| Compound | inhibition of ionophore-induced LTB4 production |
| --- | --- |
| CN(CCCOc1ccc(Cc2ccccc2)cc1)CCC(=O)O.Cl [SC57461] | caused inhibition |

Tested on: colitis symptoms
Experiment: not given
Details: eight weeks of treatment; cotton top tamarins; cited from earlier work

| Compound | colitis symptoms |
| --- | --- |
| CN(CCCOc1ccc(Cc2ccccc2)cc1)CCC(=O)O.Cl [SC57461] | significantly improved colitis symptoms |
